# Experimental data reported in publication PMC4046888 (Cancer cell, 2011).
# Like-named read-outs stand apart in the source and are kept apart here.
# Tests used:
# RS4;11 cells (MLL-AF4) = assay: Cell proliferation, viable cell count; format: cell-based; settings: Homo sapiens, RS4-11, 336 h, read-out: IC50 inhibition of cell proliferation
# SEM cells (MLL-AF4) = assay: Cell proliferation, viable cell count; format: cell-based; settings: Homo sapiens, 336 h, read-out: IC50 inhibition of cell proliferation
# MV4-11 cells (MLL-AF4) = assay: Cell proliferation, viable cell count; format: cell-based, human
# MOLM-13 cells (MLL-AF9) = assay: Cell proliferation, viable cell count; format: cell-based, human
# KOPN-8 cells (MLL-ENL) = assay: Cell proliferation, viable cell count; format: cell-based; settings: Homo sapiens, KOPN-8, 336 h, read-out: IC50 inhibition of cell proliferation
# [1] = tested on: REH cells (nonrearranged); assay: Cell proliferation, viable cell count; format: cell-based; settings: Homo sapiens, 336 h, read-out: IC50 inhibition of cell proliferation
# [2] = tested on: Kasumi-1 cells (nonrearranged); assay: Cell proliferation, viable cell count; format: cell-based; settings: Homo sapiens, Kasumi 1, 336 h, read-out: IC50 inhibition of cell proliferation
# [3] = tested on: 697 cells (nonrearranged); assay: Cell proliferation, viable cell count; format: cell-based; settings: Homo sapiens, 336 h, read-out: IC50 inhibition of cell proliferation
# [4] = tested on: HL-60 cells (nonrearranged); assay: Cell proliferation, viable cell count; format: cell-based; settings: Homo sapiens, HL-60, 336 h, read-out: IC50 inhibition of cell proliferation
# [5] = tested on: Jurkat cells (nonrearranged); assay: Cell proliferation, viable cell count; format: cell-based, human
# [6] = tested on: U937 cells (nonrearranged); assay: Cell proliferation, viable cell count; format: cell-based; settings: Homo sapiens, U-937, 336 h, read-out: IC50 inhibition of cell proliferation
# [7] = tested on: H3K79me2 levels in MV4-11 cells; assay: Immunoblot of extracted histones for H3K79me2; format: cell-based, human
# [8] = tested on: H3K79me2 levels in MOLM-13 cells; assay: Immunoblot of extracted histones for H3K79me2; format: cell-based, human; settings: 4 days, increasing concentrations
# [9] = tested on: H3K79me2 levels in Jurkat cells; assay: Immunoblot of extracted histones for H3K79me2; format: cell-based, human; settings: 4 days, increasing concentrations
# [10] = tested on: histone methyl marks in MV4-11 cells; assay: Immunoblot with panel of methyl-lysine and methyl-arginine specific antibodies; format: cell-based, human; settings: 10 μM
# [11] = tested on: HOXA9, MEIS1 and TBP mRNA in MV4-11 and MOLM-13 cells; assay: Quantitative real-time PCR, time course at 3 μM; format: cell-based, human
# [12] = tested on: primary murine hematopoietic progenitors transformed by MLL-AF9; assay: Proliferation of transformed hematopoietic progenitors; format: cell-based; settings: 10 days treatment, MTT at day 12
# [13] = tested on: hematopoietic progenitors transformed by coexpression of HoxA9 and Meis1a; assay: as above; format: cell-based, murine; settings: concentrations of up to 30 μM
# [14] = tested on: H3K79me2 in MLL-AF9 transformed hematopoietic progenitors; assay: Immunoblot for H3K79me2 in transformed progenitors; format: cell-based, murine; settings: 10 days
# [15] = tested on: H3K79me2 in Hoxa9-Meis1a transformed hematopoietic progenitors; assay: Immunoblot for H3K79me2 in transformed progenitors; format: cell-based, murine; settings: 10 days
# MV4-11 cells = assay: Flow cytometry for DNA content and Annexin V; format: cell-based, human; settings: 3 μM
# [16] = tested on: CD14 expression in MOLM-13 cells; assay: Flow cytometry for cell surface CD14; format: cell-based, human; settings: 3 μM, 12 days
# [17] = Plasma concentration by LC-MS/MS, mini-osmotic pump infusion; format: in vivo, mouse; settings: for average steady-state plasma concentration: pilot PK
# [18] = tested on: MV4-11 cells injected into tail vein of NSG mice; assay: Disseminated MV4-11 leukemia model, survival; format: in vivo, mouse
# normal C57BL/6 mice = assay: Hematologic analysis and tolerability in normal mice; format: in vivo, mouse; settings: pump 150 mg/ml, 14 days
# Solubility = format: physicochemical
# [19] = tested on: HOXA9 and MEIS1 transcript levels in MV4-11 cells; assay: Quantitative real-time PCR, concentration response; settings: Homo sapiens, MV4-11, 144 h
# [20] = tested on: HOXA9 and MEIS1 transcript levels in MOLM-13 cells; assay: Quantitative real-time PCR, concentration response; settings: Homo sapiens, MOLM-13, 144 h
# CARM1 = CARM1 (Homo sapiens, UniProt Q86X55); assay: Histone methyltransferase panel IC50, balanced conditions
# EHMT2 = EHMT2 (Homo sapiens, UniProt Q96KQ7); assay: as above
# [21] = molecular target: EZH1 (in the context of the PRC2 multiprotein complex) (Homo sapiens, UniProt Q92800); assay: as above
# Sequence of EZH1 (in the context of the PRC2 multiprotein complex) (Q92800 whole entry): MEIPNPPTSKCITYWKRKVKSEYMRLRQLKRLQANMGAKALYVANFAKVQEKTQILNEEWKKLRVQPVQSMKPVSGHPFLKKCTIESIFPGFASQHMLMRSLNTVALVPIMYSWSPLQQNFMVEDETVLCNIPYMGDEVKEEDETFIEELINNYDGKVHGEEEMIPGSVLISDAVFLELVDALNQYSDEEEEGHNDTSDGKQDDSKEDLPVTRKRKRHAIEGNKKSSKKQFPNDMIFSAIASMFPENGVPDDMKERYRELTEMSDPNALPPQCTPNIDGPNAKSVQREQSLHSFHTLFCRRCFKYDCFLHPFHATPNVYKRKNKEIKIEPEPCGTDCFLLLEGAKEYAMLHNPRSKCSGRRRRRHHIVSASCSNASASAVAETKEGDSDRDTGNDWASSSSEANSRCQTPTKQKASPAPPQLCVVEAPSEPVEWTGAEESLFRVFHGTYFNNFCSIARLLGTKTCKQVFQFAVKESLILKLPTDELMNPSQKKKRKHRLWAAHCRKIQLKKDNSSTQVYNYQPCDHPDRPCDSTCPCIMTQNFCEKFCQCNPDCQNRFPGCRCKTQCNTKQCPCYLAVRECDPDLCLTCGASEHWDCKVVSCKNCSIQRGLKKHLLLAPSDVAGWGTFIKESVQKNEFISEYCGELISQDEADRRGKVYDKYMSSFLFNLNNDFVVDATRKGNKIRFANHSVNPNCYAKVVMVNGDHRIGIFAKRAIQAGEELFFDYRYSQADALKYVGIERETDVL
# Sequence of EZH1 (in the context of the PRC2 multiprotein complex) (O75530 whole entry partner): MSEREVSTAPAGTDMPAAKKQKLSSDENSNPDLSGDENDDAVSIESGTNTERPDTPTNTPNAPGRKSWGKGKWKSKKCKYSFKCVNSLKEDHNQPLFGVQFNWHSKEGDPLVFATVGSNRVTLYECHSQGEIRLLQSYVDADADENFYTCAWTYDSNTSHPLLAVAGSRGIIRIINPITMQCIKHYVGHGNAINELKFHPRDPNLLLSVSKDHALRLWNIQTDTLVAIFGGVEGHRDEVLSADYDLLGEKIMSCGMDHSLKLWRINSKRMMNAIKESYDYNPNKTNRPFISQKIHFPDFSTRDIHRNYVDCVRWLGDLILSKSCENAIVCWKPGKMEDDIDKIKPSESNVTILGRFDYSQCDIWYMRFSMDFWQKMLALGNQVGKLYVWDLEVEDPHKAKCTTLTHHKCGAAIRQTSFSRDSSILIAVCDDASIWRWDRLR
# Sequence of EZH1 (in the context of the PRC2 multiprotein complex) (Q15022 whole entry partner): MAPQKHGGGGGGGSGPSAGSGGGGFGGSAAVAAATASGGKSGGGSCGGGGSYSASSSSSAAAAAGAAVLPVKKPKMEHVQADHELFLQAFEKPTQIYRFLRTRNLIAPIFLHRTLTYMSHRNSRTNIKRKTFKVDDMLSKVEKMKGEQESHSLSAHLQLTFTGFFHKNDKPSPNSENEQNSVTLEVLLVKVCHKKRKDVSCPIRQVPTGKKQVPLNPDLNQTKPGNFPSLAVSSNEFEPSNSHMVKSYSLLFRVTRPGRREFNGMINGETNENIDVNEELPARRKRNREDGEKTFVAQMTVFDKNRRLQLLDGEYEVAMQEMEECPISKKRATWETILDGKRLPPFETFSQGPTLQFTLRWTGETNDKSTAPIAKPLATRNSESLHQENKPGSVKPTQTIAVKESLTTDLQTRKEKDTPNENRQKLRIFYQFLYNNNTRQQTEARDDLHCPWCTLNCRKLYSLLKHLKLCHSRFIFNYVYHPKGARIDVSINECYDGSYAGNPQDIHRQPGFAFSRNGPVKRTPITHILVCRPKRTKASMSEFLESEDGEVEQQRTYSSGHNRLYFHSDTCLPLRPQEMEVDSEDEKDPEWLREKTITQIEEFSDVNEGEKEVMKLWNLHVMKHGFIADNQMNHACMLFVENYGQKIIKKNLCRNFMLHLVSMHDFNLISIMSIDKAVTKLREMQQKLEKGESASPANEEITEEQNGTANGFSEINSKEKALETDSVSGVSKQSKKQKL
# Sequence of EZH1 (in the context of the PRC2 multiprotein complex) (Q09028 whole entry partner): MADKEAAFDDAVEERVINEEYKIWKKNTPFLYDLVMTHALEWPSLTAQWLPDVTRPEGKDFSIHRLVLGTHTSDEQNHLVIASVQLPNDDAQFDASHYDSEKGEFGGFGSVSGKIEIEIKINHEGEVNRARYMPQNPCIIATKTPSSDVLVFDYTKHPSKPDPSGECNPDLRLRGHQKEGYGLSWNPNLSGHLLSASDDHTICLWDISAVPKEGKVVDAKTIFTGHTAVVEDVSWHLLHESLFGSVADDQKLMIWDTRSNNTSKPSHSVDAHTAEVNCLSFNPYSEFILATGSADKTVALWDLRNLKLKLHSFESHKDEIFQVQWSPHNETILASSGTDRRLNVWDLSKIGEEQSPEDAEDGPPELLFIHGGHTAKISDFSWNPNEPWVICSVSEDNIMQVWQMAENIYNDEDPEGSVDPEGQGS
# [22] = molecular target: EZH2 (in the context of the PRC2 multiprotein complex) (Homo sapiens, UniProt Q15910); assay: as above
# PRMT1 = PRMT1 (Homo sapiens, UniProt Q99873); assay: as above
# Sequence of PRMT1 (Q99873 whole entry): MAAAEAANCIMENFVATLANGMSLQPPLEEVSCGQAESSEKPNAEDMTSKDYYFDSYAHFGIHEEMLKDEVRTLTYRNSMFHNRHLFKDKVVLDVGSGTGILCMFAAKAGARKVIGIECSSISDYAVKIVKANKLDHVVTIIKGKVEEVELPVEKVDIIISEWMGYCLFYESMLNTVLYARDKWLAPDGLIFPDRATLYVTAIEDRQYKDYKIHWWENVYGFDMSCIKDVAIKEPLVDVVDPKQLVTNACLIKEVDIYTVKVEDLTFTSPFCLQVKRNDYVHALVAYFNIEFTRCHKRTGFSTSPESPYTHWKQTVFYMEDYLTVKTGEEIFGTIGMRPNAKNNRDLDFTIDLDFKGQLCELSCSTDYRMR
# PRMT5 = PRMT5 (Homo sapiens, UniProt O14744); assay: as above
# Sequence of PRMT5 (O14744 whole entry): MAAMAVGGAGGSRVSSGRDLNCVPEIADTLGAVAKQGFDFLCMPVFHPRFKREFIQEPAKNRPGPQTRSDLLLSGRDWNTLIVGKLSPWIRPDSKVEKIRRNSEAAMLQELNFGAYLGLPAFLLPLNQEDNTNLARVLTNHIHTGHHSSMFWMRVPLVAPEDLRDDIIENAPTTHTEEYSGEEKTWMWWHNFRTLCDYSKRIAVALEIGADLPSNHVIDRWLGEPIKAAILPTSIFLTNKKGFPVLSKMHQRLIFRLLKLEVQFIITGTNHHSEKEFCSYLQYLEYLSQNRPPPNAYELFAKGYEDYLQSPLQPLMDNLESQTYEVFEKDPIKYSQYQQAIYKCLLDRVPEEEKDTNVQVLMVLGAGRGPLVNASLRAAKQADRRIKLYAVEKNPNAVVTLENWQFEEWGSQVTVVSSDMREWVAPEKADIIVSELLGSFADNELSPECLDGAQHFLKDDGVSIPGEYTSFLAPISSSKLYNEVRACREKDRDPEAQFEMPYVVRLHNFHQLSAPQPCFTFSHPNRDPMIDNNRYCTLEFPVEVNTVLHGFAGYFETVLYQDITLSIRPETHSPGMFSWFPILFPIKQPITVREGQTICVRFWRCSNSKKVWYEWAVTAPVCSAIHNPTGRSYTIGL
# Sequence of PRMT5 (Q9BQA1 whole entry partner): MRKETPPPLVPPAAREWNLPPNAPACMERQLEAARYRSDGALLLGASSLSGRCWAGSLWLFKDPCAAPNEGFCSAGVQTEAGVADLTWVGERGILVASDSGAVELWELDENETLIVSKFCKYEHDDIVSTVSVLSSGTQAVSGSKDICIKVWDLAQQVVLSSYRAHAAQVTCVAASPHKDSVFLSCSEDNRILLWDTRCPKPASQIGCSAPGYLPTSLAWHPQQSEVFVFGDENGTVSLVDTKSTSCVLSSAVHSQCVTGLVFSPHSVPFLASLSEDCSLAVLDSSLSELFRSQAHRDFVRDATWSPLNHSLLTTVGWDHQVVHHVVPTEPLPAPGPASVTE
# PRMT8 = PRMT8 (Homo sapiens, UniProt Q9NR22); assay: as above
# Sequence of PRMT8 (Q9NR22 whole entry): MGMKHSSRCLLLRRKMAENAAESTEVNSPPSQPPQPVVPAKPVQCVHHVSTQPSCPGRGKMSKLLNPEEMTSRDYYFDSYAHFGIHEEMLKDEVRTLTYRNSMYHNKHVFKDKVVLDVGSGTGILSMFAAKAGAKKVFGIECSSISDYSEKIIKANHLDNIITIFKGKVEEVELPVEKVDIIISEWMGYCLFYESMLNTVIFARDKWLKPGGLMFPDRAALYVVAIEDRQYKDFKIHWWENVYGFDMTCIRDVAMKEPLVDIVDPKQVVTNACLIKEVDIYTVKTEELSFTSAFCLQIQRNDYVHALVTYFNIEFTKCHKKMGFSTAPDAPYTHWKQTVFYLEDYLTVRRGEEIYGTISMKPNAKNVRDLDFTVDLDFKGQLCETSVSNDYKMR
# SETD7 = SETD7 (Homo sapiens, UniProt Q8WTS6); assay: as above
# Sequence of SETD7 (Q8WTS6 whole entry): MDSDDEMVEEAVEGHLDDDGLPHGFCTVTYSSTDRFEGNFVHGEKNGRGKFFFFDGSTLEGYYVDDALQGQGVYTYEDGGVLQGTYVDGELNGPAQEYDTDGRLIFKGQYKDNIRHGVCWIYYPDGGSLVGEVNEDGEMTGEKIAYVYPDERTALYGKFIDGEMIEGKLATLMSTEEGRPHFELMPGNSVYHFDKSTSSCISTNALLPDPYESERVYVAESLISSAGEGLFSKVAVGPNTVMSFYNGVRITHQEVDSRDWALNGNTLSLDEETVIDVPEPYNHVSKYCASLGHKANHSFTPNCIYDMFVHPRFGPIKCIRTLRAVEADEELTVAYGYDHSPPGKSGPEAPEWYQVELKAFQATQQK
# WHSC1 = WHSC1 (Homo sapiens, UniProt O96028); assay: as above
# [23] = read-out: IC50 decrease of HOXA9 transcript
# [24] = read-out: IC50 decrease of MEIS1 transcript
smiles,measurement,setting,value
CC(C)N(CCCNC(=O)Nc1ccc(C(C)(C)C)cc1)C[C@H]1O[C@@H](n2ccc3c(N)ncnc32)[C@H](O)[C@@H]1O [EPZ004777],IC50,RS4;11 cells (MLL-AF4),6.47 µM
same,IC50,SEM cells (MLL-AF4),1720 nM
same,number of viable cells,"MV4-11 cells (MLL-AF4); 3 μM, extended treatment",dramatically reduced
same,IC50,"MV4-11 cells (MLL-AF4); Homo sapiens, MV4-11, 336 h, read-out: IC50 inhibition of cell proliferation",170 nM
same,number of viable cells,"MOLM-13 cells (MLL-AF9); 3 μM, extended treatment",dramatically reduced
same,IC50,"MOLM-13 cells (MLL-AF9); Homo sapiens, 336 h, read-out: IC50 inhibition of cell proliferation",720 nM
same,IC50,KOPN-8 cells (MLL-ENL),620 nM
same,IC50,[1],13.9 µM
same,IC50,[2],33 µM
same,IC50,[3],36.6 µM
same,IC50,[4],> 50 µM
same,growth of cells,"[5]; 3 μM, extended treatment",unaffected
same,IC50,"[5]; Homo sapiens, Jurkat, 336 h, read-out: IC50 inhibition of cell proliferation",> 50 µM
same,IC50,[6],> 50 µM
same,time to full depletion of H3K79me2,[7]; 3 μM,4 to 5 days
same,global H3K79me2 levels,"[7]; 4 days, increasing concentrations",concentration-dependent reduction
same,global H3K79me2 levels,[8],concentration-dependent reduction
same,global H3K79me2 levels,[9],concentration-dependent reduction
same,H3K79me1 levels,[10],reduced
same,H4R3me2 (residue targeted by PRMT5),[10],no changes
same,methylation state of H3K9 and H3K4 (PRDM and SMYD family targets),[10],did not change
same,time to maximal reduction of HOXA9 and MEIS1 transcripts,[11],6 to 8 days
same,time to significant decrease of HOXA9 and MEIS1 transcripts,[11],≤ 48 h
same,transcript levels of housekeeping gene TBP,[11]; 8 days,unaffected
same,concentration strongly inhibiting proliferation,[12],≥ 3 µM
same,survival of transformed progenitors,[13],unaffected
same,H3K79 methylation,[14],inhibited H3K79 methylation
same,H3K79 methylation,[15],inhibited H3K79 methylation
same,G0/G1 phase cells,MV4-11 cells; 4 days,modest increase
same,S-phase cells,MV4-11 cells; 4 days,decrease
same,sub-G1 and Annexin-positive cells,MV4-11 cells; days 4 to 10,increase
same,cell surface expression of CD14,[16],induced
same,pharmacokinetic properties,[17]; precluded conventional dosing,poor
same,average circulating plasma level,"[17]; pump 50 mg/ml, s.c. MV4-11 xenograft mice",0.55 ± 0.12 µM
same,average steady-state plasma concentration,[17]; pump 100 mg/ml,0.64 ± 0.48 µM
same,average steady-state plasma concentration,[17]; pump 150 mg/ml,0.84 ± 0.45 µM
same,pump implant site reaction,[18]; 100 and 150 mg/ml groups,Local irritation at the pump implant site
same,body weight,"[18]; NSG mice, 14 days",no significant weight loss
same,tolerability,"[18]; NSG mice, 14 days",well tolerated
same,median survival,"[18]; pumps 50, 100 or 150 mg/ml, 14 days exposure, log-rank test",dose-dependent and statistically significant increase
same,bone marrow cellularity,normal C57BL/6 mice,preserved
same,colony forming potential of bone marrow progenitors,normal C57BL/6 mice,did not find any significant differences
same,granulocyte/monocyte progenitors (GMP),normal C57BL/6 mice,not significantly affected
same,overt toxicity,normal C57BL/6 mice,no overt toxicity
same,tolerability,normal C57BL/6 mice,well tolerated
same,populations highly enriched for hematopoietic stem cells,normal C57BL/6 mice; versus control mice,did not reveal any difference
same,committed progenitors (Lin-Sca-1-c-Kit+),normal C57BL/6 mice; most apparent in CMP and MEP,statistically significant decrease
same,total white blood cell count,"normal C57BL/6 mice; neutrophils, monocytes, lymphocytes increased",statistically significant increase
same,solubility,Solubility,≤ 50 µM
same,solubility,"Solubility; 15% ethanol, 50% PEG300, 35% water",150 mg/mL
same,IC50,[19]; [23],~700 nM
same,IC50,[19]; [24],~700 nM
same,IC50,[20]; [23],~700 nM
same,IC50,[20]; [24],~700 nM
same,IC50,CARM1,> 50 µM
same,IC50,EHMT2,> 50 µM
same,IC50,[21],> 50 µM
same,IC50,[22],> 50 µM
same,IC50,PRMT1,> 50 µM
same,IC50,"PRMT5; IC50, ± 95% confidence interval",521 ± 137 nM
same,IC50,"PRMT5; biochemical IC50, only HMT other than DOT1L below this bound",< 50000 nM
same,IC50,PRMT8,> 50 µM
same,IC50,SETD7,> 50 µM
same,IC50,WHSC1,> 50 µM
